Data set [1] concerns Mus musculus. The data set is described as follows: Anxiolytic activity in ip dosed Harlan CD1 mouse assessed as inhibition of marble burying activity administered 15 to 30 mins prior to test. The data set is classed as functional.
A short description of data set [2]: Oral bioavailability in rat. The data set is classed as ADME, organism-based. As to conditions: in vivo.
Data set [3] can be described thus: Oral bioavailability in cynomolgus monkey. The data set is classed as ADME, organism-based, Macaca fascicularis. Conditions: in vivo.
Data set [4] can be described thus: Ratio of drug level in brain to plasma in mouse at 10 mg/kg, po. The data set is classed as ADME, organism-based. Further details: dose 10 mg/kg, route oral. Conditions: read-out: BPR.
Data set [5] in a line: Plasma protein binding in human. As to conditions: read-out: PPB (converted). The data set is classed as ADME, cell-free.

As to `Cc1cc(Oc2cnc(C)nc2)cc(C(=O)Nc2ccc(F)cn2)n1`, the ED in data set [1] is 10 mg/kg.

Turning to `CCc1cccc(NC(=O)c2cc(Oc3cncnc3)cc(C)n2)n1`, in data set [1], the ED was found to be 10 mg/kg. This molecule also came in with a bioavailability in data set [2] of 39%.

With `Cc1cc(Oc2cncc(F)c2)cc(C(=O)Nc2ccc(F)cn2)n1`, the bioavailability in data set [3] was found to be 25%; in data set [2], 67%. Moreover, in data set [4], the Kp is 4.7. Moreover, the ED in data set [1] was 30 mg/kg.

Take `Cc1cc(Oc2cncnc2)cc(C(=O)Nc2ccc(F)cn2)n1`: the bioavailability was found to be 42% in data set [3] and 30% in data set [2]. Besides, the fraction unbound in data set [5] is 0.086. The Kp in data set [4] came out at 5.9. The ED in data set [1] was found to be 10 mg/kg.

The bioavailability is dose-corrected exposure relative to a reference, in per cent.

The record behind these values is ChEMBL document CHEMBL2385023, “Negative allosteric modulators of metabotropic glutamate receptor subtype” (ACS Med Chem Lett, 2013).
